Laboratory results from patent publication US8188268B2, “Porous crystalline saccharide, its preparation and uses” (Kabushiki Kaisha Hayashibara Seibutsu Kagaku Kenkyujo, priority 2005, dated 2012).
Like-named read-outs stand apart in the source and are kept apart here.

Columns and labels:
Type in all cases: physicochemical
[1] = Specific surface area by nitrogen adsorption isotherms (BET); details: for Specific surface area: nitrogen adsorption isotherms, BET
Description: Specific surface area of the porous anhydrous crystalline trehalose was measured by the nitrogen adsorption isotherms using “MODEL ASAP-2400”, a specific surface area/pore size distribution analyzer commercialized by Micromeritics, Georgia, USA. […] The result was analyzed by the BET (Brunnauer, Emmet, and Teller) method. The commercial anhydrous crystalline trehalose, a reagent grade, commercialized by Hayashibara Biochemical Laboratories Inc., Okayama, Japan, was used as a control. […] Further, those pore size distribution charts are in FIG. 19. […] The results of the analysis on the specific surface area and the pore size distribution are summarized in Table 7, and the pore size distribution chart was in FIG. 24. As a control, “MALTOSE OM”, a hydrous crystalline maltose product with maltose purity of 98% or higher, produced by Hayashibara Co., Ltd., Okayama, Japan, was used.

[2] = Pore size distribution by the mercury filling method; details: for Median pore diameter: control maltose values are from space between particles, not pores
[3] = Dissolution test against cold water at 10° C.; details: for Time required for dissolution, No. 1 / Time required for dissolution, No. 2 / Time required for dissolution, No. 3 / Time required for dissolution, No. 4 / Time required for dissolution, No. 5 / Time required for dissolution, Average: 20 ml water 10° C., about 300 rpm, 0.5 g trehalose or 0.2 g maltose; for Time required for dissolution, Average: average of 5; for Dissolution in cold water in comparison with controls: cold water 10° C.
Description: A dissolution test against cold water at 10° C. was carried out using the porous anhydrous crystalline trehalose prepared by treating at 70° C. for 60 min in Example 1, the porous anhydrous crystalline maltose prepared by the method in Example 3, and the porous hydrous crystalline maltose prepared by the method in Example 5, as samples. The results were compared with those of the controls, anhydrous crystalline trehalose, hydrous crystalline trehalose, and hydrous crystalline maltose.
Twenty milliliters of 10° C.-cold water was placed in a test tube with an internal diameter of 18 mm, and then stirred using a stirring bar. A crystalline saccharide sample was put into the test tube, and the time required for the complete dissolution (for the disappearance of precipitate particles) was measured. The amount of samples was set to be 0.5 g in the case of trehalose and to be 0.2 g in the case of maltose, and the stirring rate was set to be about 300 rpm in any case. The measurement of time for dissolution under the above conditions was carried out 5-times at each sample.

[4] = Oil-keeping ability with salad oil; parameters: key to Oil-keeping ability: (5 g salad oil / g saccharide added at endpoint) x 100; details: for Oil-keeping ability: (5 g salad oil / amount of added saccharide) x 100
Description: The oil-keeping ability of each crystalline saccharide was measured using the porous anhydrous crystalline trehalose prepared by treating at 70° C. for 60 min in Example 1, the control hydrous crystalline trehalose, and the control anhydrous crystalline trehalose as crystalline trehalose samples; and the porous anhydrous crystalline maltose prepared by the method in Example 3, the control hydrous crystalline β-maltose, and the control anhydrous crystalline α-maltose, and the control anhydrous crystalline β-maltose as crystalline maltose samples, and the results were compared.
The measurement of the oil-keeping ability of the crystalline saccharide was carried out according to the method disclosed in Japanese Patent Kokai No. 31,650/84. Five grams of “NISSHIN SALAD OIL”, a salad oil commercialized by Nisshin OiliO Group, Ltd., Tokyo, Japan, was placed in a 50-ml plastic container, and then gradually admixed with each powdery crystalline saccharide with stirring. […] When the amount of the mixed saccharide is further increased, the agglomerate increase in solidity and then loosen. The point that the agglomerate is loosened is estimated to be the endpoint and the oil-keeping ability was calculated using the following formula. Oil-Keeping Ability =(The amount of salad oil(5 g)/the amount of added PCS*)×100 *: Powdery crystalline saccharide tm Formula 1

[5] = Crystal moisture content (Karl Fischer) on moisture absorption and drying
Description: Hydrous crystalline saccharides were prepared from the respective porous anhydrous crystalline saccharide using the porous anhydrous crystalline trehalose, obtained by treating at 70° C. for 60 min in Example 1, and the porous anhydrous crystalline maltose, obtained by treating at 70° C. for 480 min in Example 3, as materials. About 50 g of the porous anhydrous crystalline saccharide and about 150 ml of deionized water were placed in respective container. Then, the both open containers were placed in the same closed vessel and leaved to stand at 27° C. for two days. By the treatment, the anhydrous crystalline saccharide was allowed to absorb moisture and converted into hydrous crystal. The resulting hydrous crystal was dried in a drying machine at 50° C. for one hour to remove excess moisture. The moisture contents of the porous anhydrous crystalline trehalose and the porous anhydrous crystalline maltose before and after the treatment to absorb moisture and after drying are in Table 6. The moisture content of crystals was measured by the conventional Karl Fischer's method.

[6] = Flax seed oil powder: keeping of powdery form; details: 1 part flax seed oil + 10 parts saccharide as base; listed as control hydrous crystalline trehalose
Description: One part by weight of flax seed oil was admixed with 10 parts by weight of the porous anhydrous crystalline trehalose, prepared by treating at 70° C. for 60 min in Example 1, and then the mixture was kneaded to make into a powdery product. In the same manner, powdery products were prepared by using “TREHA®”, hydrous crystalline trehalose commercialized by Hayashibara Shoji Inc., Okayama, Japan, and anhydrous crystalline trehalose, prepared from hydrous crystalline trehalose by drying in vacuo at a high temperature according to the conventional method, as controls. […] The flaxseed oil powder can be preferably used as a supplement.

[7] = listed as porous anhydrous crystalline maltose
[8] = listed as Porous anhydrous crystalline β-maltose (Present invention)
[9] = listed as porous hydrous crystalline maltose
[10] = listed as Porous hydrous crystalline β-maltose (Present invention)

Row | Compound | Specific surface area [1] [m^2/g] | Intrusion volume [2] | Median pore diameter [2] [μm] | Time required for dissolution, No. 1 [3] [s] | Time required for dissolution, No. 2 [3] [s] | Time required for dissolution, No. 3 [3] [s] | Time required for dissolution, No. 4 [3] [s] | Time required for dissolution, No. 5 [3] [s] | Time required for dissolution, Average [3] [s] | Oil-keeping ability [4] | also measured
1 | OC[C@H]1O[C@H](O[C@H]2[C@H](O)[C@@H](O)C(O)O[C@@H]2CO)[C@H](O)[C@@H](O)[C@@H]1O (mixture of isomers) [Anhydrous crystalline α-maltose (Control)] [reference compound] | 0.48 | (No pore) | 13.00 | 37 | 35 | 39 | 38 | 36 | 37 | 41.7 | Specific surface area ([1]; listed as anhydrous crystalline α-maltose): 0.48 m^2/g
2 | OC[C@H]1O[C@H](O[C@H]2[C@H](O)[C@@H](O)C(O)O[C@@H]2CO)[C@H](O)[C@@H](O)[C@@H]1O (mixture of isomers) [Anhydrous crystalline β-maltose (Control)] [reference compound] | 0.82 | (No pore) | 14.70 |  |  |  |  |  |  | 40 | Specific surface area ([1]; listed as anhydrous crystalline β-maltose): 0.82 m^2/g
3 | OC[C@H]1O[C@H](O[C@H]2[C@H](O)[C@@H](O)C(O)O[C@@H]2CO)[C@H](O)[C@@H](O)[C@@H]1O (mixture of isomers) [Hydrous crystalline β-maltose (Control), maltose] | 0.46 | (No pore) | 11.20 | 118 | 113 | 114 | 119 | 116 | 116 |  | Specific surface area ([1]; listed as control hydrous crystalline β-maltose): 0.46 m^2/g; Specific surface area ([1]; listed as hydrous crystalline β-maltose): 0.46 m^2/g; Oil-keeping ability ([4]; listed as Hydrous crystalline maltose (Control)): 45.5
4 | OC[C@H]1O[C@H](O[C@H]2[C@H](O)[C@@H](O)C(O)O[C@@H]2CO)[C@H](O)[C@@H](O)[C@@H]1O (mixture of isomers) [Porous anhydrous crystalline maltose, maltose] | 3.39 | 1.05 mL/g | 1.26 |  |  |  |  |  |  |  | Specific surface area [1, 7]: 3.39 m^2/g; Pore diameter of clear peak in pore size distribution chart [2]: less than 5 μm; Intrusion volume [2, 7]: 1.05 mL/g; Crystal moisture content, after drying ([5]; after moisture absorption and drying at 50° C. for one hour): 5.14 %, w/w; Crystal moisture content, before treatment ([5]; before moisture absorption): 0.32 %, w/w; Crystal moisture content, after treatment ([5]; closed vessel with water, 27° C., two days): 7.35 %, w/w; Time required for dissolution, No. 1 [3, 8]: 30 s; Time required for dissolution, No. 2 [3, 8]: 31 s; Time required for dissolution, No. 3 [3, 8]: 33 s; Time required for dissolution, No. 4 [3, 8]: 29 s; Time required for dissolution, No. 5 [3, 8]: 32 s; Time required for dissolution, Average [3, 8]: 31 s; Dissolution in cold water in comparison with controls [3]: rapidly dissolved in cold water; Oil-keeping ability [4, 8]: 143; Oil-keeping ability ([4]; listed as porous anhydrous crystalline β-maltose): 143; Oil-keeping ability relative to control ([4]; compared with control crystalline saccharide): about 3 folds
5 | OC[C@H]1O[C@H](O[C@H]2[C@H](O)[C@@H](O)C(O)O[C@@H]2CO)[C@H](O)[C@@H](O)[C@@H]1O (mixture of isomers) [Porous hydrous crystalline maltose, maltose] | 1.39 | 0.77 mL/g | 2.82 |  |  |  |  |  |  |  | Specific surface area relative to control crystalline saccharide ([1]; compared with control(s)): about 3 folds; Specific surface area [1, 9]: 1.39 m^2/g; Pore diameter of clear peak in pore size distribution chart [2]: less than 5 μm; Intrusion volume [2, 9]: 0.77 mL/g; Time required for dissolution, No. 1 [3, 10]: 67 s; Time required for dissolution, No. 2 [3, 10]: 66 s; Time required for dissolution, No. 3 [3, 10]: 64 s; Time required for dissolution, No. 4 [3, 10]: 68 s; Time required for dissolution, No. 5 [3, 10]: 65 s; Time required for dissolution, Average [3, 10]: 66 s; Dissolution in cold water in comparison with controls [3]: rapidly dissolved in cold water
6 | OC[C@H]1O[C@H](O[C@H]2O[C@H](CO)[C@@H](O)[C@H](O)[C@H]2O)[C@H](O)[C@@H](O)[C@@H]1O [Hydrous crystalline trehalose (Control), α-D-glucosyl α-D-glucoside] |  |  |  | 106 | 130 | 121 | 135 | 123 | 123 | 38.5 | Oil-keeping ability ([4]; listed as control hydrous crystalline trehalose): 38.5; Powdery form of flax seed oil powder [6]: could not keep powdery forms
7 | OC[C@H]1O[C@H](O[C@H]2O[C@H](CO)[C@@H](O)[C@H](O)[C@H]2O)[C@H](O)[C@@H](O)[C@@H]1O [Porous anhydrous crystalline trehalose (treated at 50° C. fo] [α-D-glucosyl α-D-glucoside] | 3.306 | 0.22 mL/g | 0.21 |  |  |  |  |  |  |  | Mode pore diameter [2]: 0.29 μm; Remarks (pores) [2]: Having clear pores
